pIC50: −log10 of the molar value.
Experiments:
ERBB2 (V777_G778insCG) = target: T1, ERBB2 (V777_G778insCG) (Homo sapiens, UniProt P04626, INS777CG); assay: Kinase spectrum evaluation, radiometric 33P-ATP kinase assay; type: biochemical; conditions: room temperature 2 h, 10 concentration gradients
T1 construct: purchased Reaction Biology Corporation (commissioned test)
Experimental: (§15) The substrate for the kinase reaction was placed in a freshly prepared reaction buffer and the co-factors required for the kinase reaction were added, and the buffer was prepared as: 20 mM HEPES (pH 7.5), 10 mM MgCl2, 1 mM EGTA, 0.02% Brij35, 0.02 mg/mL BSA, 0.1 mM Na3VO4, 2 mM DTT, 1% DMSO; afterwards, the kinase to be tested was added and gently shaken. The compound to be tested was dissolved in DMSO to the desired concentration and added to the above buffer containing the kinase/substrate using an autosampler Echo550. 33P-labeled ATP (33P-ATP at a final concentration of 0.01 μCi/μL) was added to the reaction system to initiate the kinase reaction at room temperature for 2 h. […] Kinase activity data were expressed as a percentage of the remaining kinase activity in the test sample, 10 concentration gradients were measured, a curve was fitted and IC50 values were calculated using Prism4 (GraphPad software).

[1] = tested on: EGFR V769_D770insASV BaF3; assay: Proliferation inhibition assay on stable cell lines (CTG Assay); type: cell-based; conditions: Mus musculus, 72 hours, CellTiter-Glo
Source text: (§1) Ba/F3, a mouse pro-B cell line dependent on interleukin-3, is a common system for studying kinases and kinase inhibitors. Recombinant expression of some protein kinases can make Ba/F3 cells no longer dependent on IL-3 for growth, and based on such properties, the inhibition of a compound on the proliferation of Ba/F3 cells expressing different target kinases can be detected, so as to reflect inhibitory effects of the compound on different kinase targets at the cellular level for kinase inhibitor screening.
(§2) CellTiter-Glo® Luminescent Cell Viability Assay was employed in this experiment to detect cell proliferation, and the specific principles are as follows:
(§3) Adenosine Tri-Phosphate (ATP) is a common energy carrier used in various life activities in nature and is the smallest unit of energy storage and transfer. In the CellTiter-Glo™ Live Cell Assay Kit, […] are used as detectors, which require the participation of ATP to generate light signals. After the CellTiter-Glo™ reagent is added to the cells, the luminescence value is measured. The light signal is proportional to the amount of ATP in the system, which is in turn positively correlated with the number of living cells. Therefore, by measuring the ATP content using the CellTiter-Glo kit, the viability of the cells and thus the level of cell proliferation can be reflected.
(§4) Cells were removed from the liquid nitrogen, quickly thawed in a water bath at 37 degree Celsius, lyophilization tubes were centrifuged at 1000 rpm, the supernatant of the lyophilized solution was discarded, and the cells were resuspended in RPMI1640+10% FBS medium and incubated in a cell culture incubator at 37 degree Celsius with a cell culture density maintaining at 2*10e5 to 2*10e6/ml at all times.
(§5) 1) The compound were serially diluted in DMSO in a compound formulation plate with a starting concentration of 1 or 10 mM and a gradient dilution of 3.
(§6) 2) A new compound formulation plate was prepared, 198 ul of RPMI160+10% FBS medium was added to each well, 2 ul/well of compound from the previous gradient-diluted compound formulation plate was transferred to this plate and mixed well, so that the highest starting compound concentration in this plate was […], and diluted by gradient (this plate was a 10* compound concentration dilution plate).
(§7) 1) Cells in logarithmic growth phase were taken, the supernatant was discarded by centrifugation, and the cells were re-suspended in a fresh RPMI1640 medium at a cell density of 2*10e4/ml.
(§8) 2) The re-suspended cells were inoculated into 2 96-well cell culture plates with white walls and clear bottom at 100 ul of cell suspension/well, and incubated overnight in a 37° C. cell incubator.
(§9) 3) The next day, one of the 96-well plates inoculated with cells were taken, 100 µl/well of cell titer glo assay reagent was added for 60 minutes, the value was read and defined as G0 data.
(§10) 4) Another parallel plate was taken, 11.1 ul/well of compound from the previously diluted 10* compound concentration dilution plate was added to this plate, so that the final concentration of compound in the cell assay plate started from 0.5 or 1 uM, which was 3-fold diluted for 9 concentration gradients. Additional DMSO control wells were set, and incubated in a 37° C. cell incubator for another 72 hours.
(§11) 5) The 96-well plate, in which cells were treated by the compound for 72 hrs, were taken from the incubator, 100 ul/well of cell titer glo assay reagent was added for 60 minutes, the value was read and defined as G3 data.
(§12) 6) The cell proliferation rate corresponding to each well was calculated according to the following formula
(§13) % prolifation=(G3 of the well of the compound to be tested−mean value of G)/(mean value of G3 of the DMSO control well−mean value of G0)*100.
(§14) Y=Bottom+(Top−Bottom)/(1+10^((Log IC50−X)*HillSlope))

EGFR G719A BaF3 = assay: as above; type: cell-based; conditions: Mus musculus, 72 hours, CellTiter-Glo
Source text: as §1, §2, §3, §4, §5, §6, §7, §8, §9, §10, §11, §12, §13, §14

[2] = tested on: EGFR D770_N771insNPG BaF3; assay: as above; type: cell-based; conditions: Mus musculus, 72 hours, CellTiter-Glo
Source text: as §1, §2, §3, §4, §5, §6, §7, §8, §9, §10, §11, §12, §13, §14

[3] = tested on: EGFR D770_N771insSVD BaF3; assay: as above; type: cell-based; conditions: Mus musculus, 72 hours, CellTiter-Glo
Source text: as §1, §2, §3, §4, §5, §6, §7, §8, §9, §10, §11, §12, §13, §14

EGFR L861Q BaF3 = assay: as above; type: cell-based; conditions: Mus musculus, 72 hours, CellTiter-Glo
Source text: as §1, §2, §3, §4, §5, §6, §7, §8, §9, §10, §11, §12, §13, §14

EGFR H773_V774insH BaF3 = assay: as above; type: cell-based; conditions: Mus musculus, 72 hours, CellTiter-Glo
Source text: as §1, §2, §3, §4, §5, §6, §7, §8, §9, §10, §11, §12, §13, §14

EGFR (d747-749/A750P) = target: T2, EGFR (d747-749/A750P) (Homo sapiens, UniProt P00533, A750P/DEL747-749); assay: Kinase spectrum evaluation, radiometric 33P-ATP kinase assay; type: biochemical; conditions: room temperature 2 h, 10 concentration gradients
T2 construct: purchased Reaction Biology Corporation (commissioned test)
Experimental: as §15

ERBB2 (D769Y) = target: T3, ERBB2 (D769Y) (Homo sapiens, UniProt P04626, D769Y); assay: as above; type: biochemical; conditions: room temperature 2 h, 10 concentration gradients
T3 construct: purchased Reaction Biology Corporation (commissioned test)
T3 sequence (P04626 23-1255 D769Y): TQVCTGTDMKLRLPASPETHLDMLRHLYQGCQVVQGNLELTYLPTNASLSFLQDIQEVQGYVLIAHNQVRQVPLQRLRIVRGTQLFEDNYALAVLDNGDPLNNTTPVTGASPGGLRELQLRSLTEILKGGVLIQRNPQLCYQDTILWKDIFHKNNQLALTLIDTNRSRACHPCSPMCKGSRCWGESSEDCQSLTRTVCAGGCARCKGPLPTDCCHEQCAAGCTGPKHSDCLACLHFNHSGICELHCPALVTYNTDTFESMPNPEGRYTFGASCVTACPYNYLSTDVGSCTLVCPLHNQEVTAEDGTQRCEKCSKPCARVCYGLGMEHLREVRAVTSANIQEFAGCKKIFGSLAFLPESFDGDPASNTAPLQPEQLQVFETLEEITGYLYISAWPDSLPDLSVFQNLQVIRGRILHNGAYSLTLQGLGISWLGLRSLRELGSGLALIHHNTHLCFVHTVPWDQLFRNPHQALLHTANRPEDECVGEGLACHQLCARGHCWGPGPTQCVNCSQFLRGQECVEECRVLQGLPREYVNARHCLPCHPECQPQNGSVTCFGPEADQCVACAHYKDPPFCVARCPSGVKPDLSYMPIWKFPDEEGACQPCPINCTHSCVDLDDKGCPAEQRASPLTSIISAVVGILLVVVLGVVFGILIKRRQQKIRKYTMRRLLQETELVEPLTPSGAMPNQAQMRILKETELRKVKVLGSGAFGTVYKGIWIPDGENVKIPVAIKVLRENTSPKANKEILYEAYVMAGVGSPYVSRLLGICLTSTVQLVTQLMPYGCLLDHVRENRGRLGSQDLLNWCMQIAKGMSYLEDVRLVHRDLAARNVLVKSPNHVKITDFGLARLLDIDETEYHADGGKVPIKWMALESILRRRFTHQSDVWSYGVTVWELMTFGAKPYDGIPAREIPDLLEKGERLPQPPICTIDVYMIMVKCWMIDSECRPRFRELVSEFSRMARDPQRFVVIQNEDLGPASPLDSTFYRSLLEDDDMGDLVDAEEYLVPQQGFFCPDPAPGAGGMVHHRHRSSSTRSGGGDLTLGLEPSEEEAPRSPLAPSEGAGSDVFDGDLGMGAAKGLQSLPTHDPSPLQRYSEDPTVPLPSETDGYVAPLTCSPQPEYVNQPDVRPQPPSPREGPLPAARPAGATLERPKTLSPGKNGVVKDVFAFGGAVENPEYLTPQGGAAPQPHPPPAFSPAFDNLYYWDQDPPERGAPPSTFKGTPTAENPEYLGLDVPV
Experimental: as §15

EGFR (D770_N771insNPG) = target: T4, EGFR (D770_N771insNPG) (Homo sapiens, UniProt P00533, INS770NPG); assay: as above; type: biochemical; conditions: room temperature 2 h, 10 concentration gradients
T4 construct: purchased Reaction Biology Corporation (commissioned test)
T4 sequence (P00533 with tags, fused parts or gaps INS770NPG limits assumed): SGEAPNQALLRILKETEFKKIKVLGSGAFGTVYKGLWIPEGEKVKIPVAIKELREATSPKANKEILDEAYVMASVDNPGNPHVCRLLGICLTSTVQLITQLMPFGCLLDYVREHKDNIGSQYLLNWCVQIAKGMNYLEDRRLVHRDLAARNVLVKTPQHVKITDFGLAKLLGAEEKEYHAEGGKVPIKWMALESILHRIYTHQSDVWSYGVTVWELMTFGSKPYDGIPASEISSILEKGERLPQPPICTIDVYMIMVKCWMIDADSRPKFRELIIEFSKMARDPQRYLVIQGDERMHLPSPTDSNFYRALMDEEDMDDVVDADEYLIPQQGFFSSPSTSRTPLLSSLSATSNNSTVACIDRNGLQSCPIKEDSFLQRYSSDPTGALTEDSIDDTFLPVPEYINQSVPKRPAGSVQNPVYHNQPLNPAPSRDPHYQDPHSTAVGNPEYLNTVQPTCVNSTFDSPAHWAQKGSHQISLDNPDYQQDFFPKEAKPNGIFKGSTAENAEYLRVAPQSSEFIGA
Experimental: as §15

EGFR (d746-750) = target: T5, EGFR (d746-750) (Homo sapiens, UniProt P00533, DEL746-750); assay: as above; type: biochemical; conditions: room temperature 2 h, 10 concentration gradients
T5 construct: purchased Reaction Biology Corporation (commissioned test)
Experimental: as §15

EGFR (G719C) = target: T6, EGFR (G719C) (Homo sapiens, UniProt P00533, G719C); assay: as above; type: biochemical; conditions: room temperature 2 h, 10 concentration gradients
T6 construct: purchased Reaction Biology Corporation (commissioned test)
Experimental: as §15

EGFR (A763_Y764insFHEA) = target: T7, EGFR (A763_Y764insFHEA) (Homo sapiens, UniProt P00533, INS763FHEA); assay: as above; type: biochemical; conditions: room temperature 2 h, 10 concentration gradients
T7 construct: purchased Reaction Biology Corporation (commissioned test)
Experimental: as §15

EGFR (A763_Y764insFQEA) = target: T8, EGFR (A763_Y764insFQEA) (Homo sapiens, UniProt P00533, INS763FQEA); assay: as above; type: biochemical; conditions: room temperature 2 h, 10 concentration gradients
T8 construct: purchased Reaction Biology Corporation (commissioned test)
T8 sequence (P00533 with tags, fused parts or gaps INS763FQEA limits assumed): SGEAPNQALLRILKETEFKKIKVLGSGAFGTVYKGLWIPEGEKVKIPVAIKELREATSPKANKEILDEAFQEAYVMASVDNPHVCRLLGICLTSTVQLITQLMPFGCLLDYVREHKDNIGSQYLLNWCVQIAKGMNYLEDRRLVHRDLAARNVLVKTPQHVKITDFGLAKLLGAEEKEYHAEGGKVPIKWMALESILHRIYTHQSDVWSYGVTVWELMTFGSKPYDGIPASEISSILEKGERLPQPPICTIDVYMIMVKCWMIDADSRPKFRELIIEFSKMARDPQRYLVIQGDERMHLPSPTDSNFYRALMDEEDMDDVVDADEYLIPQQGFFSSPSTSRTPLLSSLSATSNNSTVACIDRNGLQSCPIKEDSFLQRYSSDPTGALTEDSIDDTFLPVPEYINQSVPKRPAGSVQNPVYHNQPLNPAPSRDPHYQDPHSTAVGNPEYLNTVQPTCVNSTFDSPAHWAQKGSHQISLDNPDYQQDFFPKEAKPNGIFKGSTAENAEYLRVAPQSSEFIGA
Experimental: as §15

[4] = target: T9, EGFR (D770_N771insNPG/T790M) (Homo sapiens, UniProt P00533, INS770NPG/T790M); assay: as above; type: biochemical; conditions: room temperature 2 h, 10 concentration gradients
T9 construct: purchased Reaction Biology Corporation (commissioned test)
T9 sequence (P00533 with tags, fused parts or gaps INS770NPG/T790M limits assumed): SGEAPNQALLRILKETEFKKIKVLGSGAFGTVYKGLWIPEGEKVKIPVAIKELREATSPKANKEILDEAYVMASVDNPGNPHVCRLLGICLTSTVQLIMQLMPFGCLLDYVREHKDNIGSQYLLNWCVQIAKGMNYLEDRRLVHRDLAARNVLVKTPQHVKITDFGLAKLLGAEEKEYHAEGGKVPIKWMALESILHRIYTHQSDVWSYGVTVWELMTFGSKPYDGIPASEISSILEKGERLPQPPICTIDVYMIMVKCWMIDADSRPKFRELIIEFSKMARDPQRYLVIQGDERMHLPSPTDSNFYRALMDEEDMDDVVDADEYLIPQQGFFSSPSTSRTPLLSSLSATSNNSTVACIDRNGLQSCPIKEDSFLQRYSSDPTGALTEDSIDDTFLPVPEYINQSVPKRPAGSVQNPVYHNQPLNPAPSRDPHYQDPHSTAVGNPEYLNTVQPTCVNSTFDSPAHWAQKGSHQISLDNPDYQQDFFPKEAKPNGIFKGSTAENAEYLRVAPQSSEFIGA
Experimental: as §15

EGFR (L858R) = target: T10, EGFR (L858R) (Homo sapiens, UniProt P00533, L858R); assay: as above; type: biochemical; conditions: room temperature 2 h, 10 concentration gradients
T10 construct: purchased Reaction Biology Corporation (commissioned test)
Experimental: as §15

EGFR (G719S) = target: T11, EGFR (G719S) (Homo sapiens, UniProt P00533, G719S); assay: as above; type: biochemical; conditions: room temperature 2 h, 10 concentration gradients
T11 construct: purchased Reaction Biology Corporation (commissioned test)
Experimental: as §15

EGFR = target: T12, EGFR (Homo sapiens, UniProt P00533); assay: as above; type: biochemical; conditions: room temperature 2 h, 10 concentration gradients
T12 construct: purchased Reaction Biology Corporation (commissioned test)
Experimental: as §15

ERBB2 (V777L) = target: T13, ERBB2 (V777L) (Homo sapiens, UniProt P04626, V777L); assay: as above; type: biochemical; conditions: room temperature 2 h, 10 concentration gradients
T13 construct: purchased Reaction Biology Corporation (commissioned test)
Experimental: as §15

EGFR (G719D) = target: T14, EGFR (G719D) (Homo sapiens, UniProt P00533, G719D); assay: as above; type: biochemical; conditions: room temperature 2 h, 10 concentration gradients
T14 construct: purchased Reaction Biology Corporation (commissioned test)
Experimental: as §15

EGFR (D761Y) = target: T15, EGFR (D761Y) (Homo sapiens, UniProt P00533, D761Y); assay: as above; type: biochemical; conditions: room temperature 2 h, 10 concentration gradients
T15 construct: purchased Reaction Biology Corporation (commissioned test)
Experimental: as §15

EGFR (L861Q) = target: T16, EGFR (L861Q) (Homo sapiens, UniProt P00533, L861Q); assay: as above; type: biochemical; conditions: room temperature 2 h, 10 concentration gradients
T16 construct: purchased Reaction Biology Corporation (commissioned test)
T16 sequence (P00533 25-1210 L861Q): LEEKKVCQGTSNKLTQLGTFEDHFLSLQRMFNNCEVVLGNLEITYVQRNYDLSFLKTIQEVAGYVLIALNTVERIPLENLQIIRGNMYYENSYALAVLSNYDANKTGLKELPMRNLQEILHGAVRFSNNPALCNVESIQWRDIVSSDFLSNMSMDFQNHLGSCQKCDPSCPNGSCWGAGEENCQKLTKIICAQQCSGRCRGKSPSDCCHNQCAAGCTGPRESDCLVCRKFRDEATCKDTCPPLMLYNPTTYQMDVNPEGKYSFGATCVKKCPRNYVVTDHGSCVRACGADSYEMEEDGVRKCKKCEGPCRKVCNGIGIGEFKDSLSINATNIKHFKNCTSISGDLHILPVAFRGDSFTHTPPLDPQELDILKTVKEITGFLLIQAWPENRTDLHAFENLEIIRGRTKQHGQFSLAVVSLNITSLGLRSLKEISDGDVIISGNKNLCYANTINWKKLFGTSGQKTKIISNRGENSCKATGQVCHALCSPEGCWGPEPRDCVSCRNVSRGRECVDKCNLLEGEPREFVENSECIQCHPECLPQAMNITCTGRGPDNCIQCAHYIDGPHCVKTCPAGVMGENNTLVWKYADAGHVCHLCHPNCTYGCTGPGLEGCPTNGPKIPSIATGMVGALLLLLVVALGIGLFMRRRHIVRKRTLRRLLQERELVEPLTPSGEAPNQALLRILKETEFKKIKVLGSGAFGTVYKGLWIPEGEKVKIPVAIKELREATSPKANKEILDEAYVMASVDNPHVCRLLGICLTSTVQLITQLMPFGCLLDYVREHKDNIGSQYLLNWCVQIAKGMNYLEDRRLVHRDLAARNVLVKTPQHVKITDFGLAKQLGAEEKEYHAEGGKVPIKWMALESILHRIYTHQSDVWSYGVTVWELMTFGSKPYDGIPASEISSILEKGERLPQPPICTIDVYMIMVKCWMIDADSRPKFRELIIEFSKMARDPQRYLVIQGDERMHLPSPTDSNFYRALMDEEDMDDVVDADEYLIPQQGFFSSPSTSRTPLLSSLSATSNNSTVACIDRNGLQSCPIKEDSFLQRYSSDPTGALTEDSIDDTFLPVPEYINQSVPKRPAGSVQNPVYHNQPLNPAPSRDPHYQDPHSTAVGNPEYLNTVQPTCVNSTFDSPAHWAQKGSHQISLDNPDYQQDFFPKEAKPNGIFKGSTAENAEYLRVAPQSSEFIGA
Experimental: as §15

EGFR (D770GY) = target: T17, EGFR (D770GY) (Homo sapiens, UniProt P00533, D770Y/INS769G); assay: as above; type: biochemical; conditions: room temperature 2 h, 10 concentration gradients
T17 construct: purchased Reaction Biology Corporation (commissioned test)
T17 sequence (P00533 with tags, fused parts or gaps INS769G/D770Y limits assumed): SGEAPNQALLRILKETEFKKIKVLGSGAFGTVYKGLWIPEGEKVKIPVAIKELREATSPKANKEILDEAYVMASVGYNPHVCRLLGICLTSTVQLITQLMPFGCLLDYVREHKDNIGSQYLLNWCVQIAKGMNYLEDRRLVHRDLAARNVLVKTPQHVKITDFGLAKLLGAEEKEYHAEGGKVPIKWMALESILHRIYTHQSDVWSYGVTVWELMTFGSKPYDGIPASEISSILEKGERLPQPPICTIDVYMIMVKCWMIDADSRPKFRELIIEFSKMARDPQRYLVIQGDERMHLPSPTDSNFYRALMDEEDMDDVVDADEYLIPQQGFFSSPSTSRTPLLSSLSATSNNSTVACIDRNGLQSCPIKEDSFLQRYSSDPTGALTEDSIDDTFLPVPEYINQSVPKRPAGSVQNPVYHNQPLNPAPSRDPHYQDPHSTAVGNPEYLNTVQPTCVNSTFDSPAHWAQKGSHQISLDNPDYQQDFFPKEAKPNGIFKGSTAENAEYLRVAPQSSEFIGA
Experimental: as §15

T1 sequence (P04626 with tags, fused parts or gaps INS777CG limits assumed): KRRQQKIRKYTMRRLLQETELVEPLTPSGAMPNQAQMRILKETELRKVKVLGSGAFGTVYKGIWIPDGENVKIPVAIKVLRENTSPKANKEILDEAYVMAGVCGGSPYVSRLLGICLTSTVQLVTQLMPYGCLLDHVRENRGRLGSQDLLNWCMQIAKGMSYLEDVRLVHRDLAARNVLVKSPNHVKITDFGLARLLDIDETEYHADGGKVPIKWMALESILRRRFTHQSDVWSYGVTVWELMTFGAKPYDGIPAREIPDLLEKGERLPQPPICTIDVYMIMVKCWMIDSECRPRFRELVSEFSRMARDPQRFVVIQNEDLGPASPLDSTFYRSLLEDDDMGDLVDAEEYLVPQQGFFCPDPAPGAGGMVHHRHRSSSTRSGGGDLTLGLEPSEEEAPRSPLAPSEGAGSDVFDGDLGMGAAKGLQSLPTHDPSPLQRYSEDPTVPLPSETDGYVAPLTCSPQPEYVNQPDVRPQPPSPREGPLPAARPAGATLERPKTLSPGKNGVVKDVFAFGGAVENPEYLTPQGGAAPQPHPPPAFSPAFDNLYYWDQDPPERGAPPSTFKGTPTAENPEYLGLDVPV

SMILES | pIC50 (ERBB2 (V777_G778insCG)) | pIC50 (ERBB2 (D769Y)) | pIC50 (EGFR (D770_N771insNPG)) | pIC50 (EGFR (G719C)) | pIC50 (EGFR (A763_Y764insFHEA)) | pIC50 (EGFR (A763_Y764insFQEA)) | pIC50 [4] | pIC50 (EGFR (G719S)) | pIC50 (ERBB2 (V777L)) | pIC50 (EGFR (G719D)) | pIC50 (EGFR (D761Y)) | pIC50 (EGFR (L861Q)) | pIC50 (EGFR (D770GY)) | further results
C=CC(=O)N1CCC(Oc2cc3c(Nc4ccc(Cl)c(Cl)c4F)ncnc3cc2OC)CC1 [Poziotinib] | 10.05 | 9.68 | – | – | – | – | – | – | 9.68 | – | – | – | – | –
C=CC(=O)Nc1cc(Nc2ncc(C(=O)OC(C)C)c(-c3cn(C)c4ccccc34)n2)c(OC)cc1N(C)CCN(C)C [TAK788, Mobocertinib] | – | – | – | – | – | – | – | – | – | – | – | – | – | GI50 [1]: 1.49 nM; GI50 (EGFR G719A BaF3): 4.66 nM; GI50 [2]: 1.53 nM; GI50 [3]: 4.73 nM; GI50 (EGFR L861Q BaF3): 2.55 nM; GI50 (EGFR H773_V774insH BaF3): 4.44 nM
C=CC(=O)Nc1cccc(-n2c(=O)c(-c3ccccc3)nc3cnc(Nc4ccc(N(C)CCN(C)C)cc4OC)nc32)c1 [compound A] | 9.46 | 9.10 | 9.28 | 8.96 | 9.17 | 9.46 | 9.17 | 8.84 | 9.11 | 8.66 | 9.47 | 8.69 | 9.55 | –
C=CC(=O)Nc1cccc(-n2c(=O)c(C3CCCCC3)nc3cnc(Nc4ccc(N5CCN(C)CC5)cc4OC)nc32)c1 [compound C] | 8.56 | 8.34 | 8.44 | 8.75 | 9.03 | 9.35 | 8.61 | 8.56 | 8.79 | 8.42 | 9.00 | 9.03 | 9.01 | –

The next lines start with results.

pIC50 (ERBB2 (V777_G778insCG)) | pIC50 (ERBB2 (D769Y)) | pIC50 (EGFR (D770_N771insNPG)) | pIC50 (EGFR (G719C)) | pIC50 (EGFR (A763_Y764insFHEA)) | pIC50 (EGFR (A763_Y764insFQEA)) | pIC50 [4] | pIC50 (EGFR (G719S)) | pIC50 (ERBB2 (V777L)) | pIC50 (EGFR (G719D)) | pIC50 (EGFR (D761Y)) | pIC50 (EGFR (L861Q)) | pIC50 (EGFR (D770GY)) | SMILES | further results
9.66 | 9.46 | 9.64 | 9.29 | 9.40 | 9.54 | 9.31 | 9.44 | 9.51 | – | – | – | – | C=CC(=O)Nc1cccc(-n2c(=O)c(-c3ccccc3)nc3cnc(Nc4ccc(N5CCN(C)CC5)cc4OC)nc32)c1 [Compound 1] | GI50 [1]: 1.63 nM; GI50 (EGFR G719A BaF3): 0.58 nM; GI50 [2]: 0.99 nM; GI50 [3]: 5.59 nM; GI50 (EGFR L861Q BaF3): 0.98 nM; GI50 (EGFR H773_V774insH BaF3): 5.42 nM; pIC50 (EGFR (d747-749/A750P)): 9.54; pIC50 (EGFR (d746-750)): 9.08; pIC50 (EGFR (L858R)): 9.77; pIC50 (EGFR): 10.10
8.81 | 9.11 | 8.91 | 8.98 | 8.81 | 9.11 | 8.72 | 9.01 | 8.69 | 9.09 | 9.11 | 8.78 | 9.12 | C=CC(=O)Nc1cccc(-n2c(=O)c(-c3ccccc3)nc3cnc(Nc4ccc(N5CCN(C)CC5)c(OC)c4)nc32)c1 [compound B] | –
8.71 | 9.11 | 8.56 | 8.62 | 9.24 | 8.72 | 9.00 | 8.52 | 8.73 | 8.54 | 9.35 | 8.98 | 9.06 | C=CC(=O)Nc1cccc(-n2c(=O)c(-c3ccc(F)cc3)nc3cnc(Nc4ccc(N5CCN(C)CC5)cc4OC)nc32)c1 [compound D] | –
8.42 | 8.59 | 8.76 | 8.79 | 9.11 | 8.63 | 8.80 | 8.78 | 9.09 | 8.79 | 9.21 | 9.06 | 9.00 | C=CC(=O)Nc1cccc(-n2c(=O)c(-c3ccc(OC)cc3)nc3cnc(Nc4ccc(N5CCN(C)CC5)cc4OC)nc32)c1 [compound E] | –
